{
  "source": "patent US6797692B1",
  "about": "“Use of glutamate antagonists for the treatment of cancer” (priority 1998, dated 2004)",
  "key": {"[1]": {"tested_on": "human neuroblastoma cell line SK-N-AS", "experiment": "Tumoricidal effect, necrotic cells by trypan blue staining", "type": "cell-based", "settings": "Student's t test; for potentiation of tumoricidal effect (toxicity) of cisplatin: antagonist 10 μM plus cisplatin 10 μM; for potentiation of tumoricidal effect (toxicity) of thiotepa: antagonist 10 μM plus thiotepa 10 μM; for potentiation of tumoricidal effect (toxicity) of vinblastin: antagonist 10 μM plus vinblastin 1 μM", "protocol": "(§1) Cell lines and culture. Human neuroblastoma (SKNAS), human rhabdomyosarcoma/medulloblastoma (TE671), human brain astrocytoma (MOGGCCM), human thyroid carcinoma (FTC238), human lung carcinoma (A549), human colon adenocarcinoma (LS180) and human breast carcinoma (T47D) were obtained from European Collection of Cell Cultures (ECACC), Center for Applied Microbiology & Research, Salisbury, UK. SKNAS, TE671, T47D, LS180 were grown in 1:1 mixture of Dulbecco's Modified Eagle's Medium (DMEM; D 6421, Sigma, Ca^2+-concentration 1.05 mM) and Nutrient Mixture F-12 Ham (Ham's F-12; Sigma) supplemented with 10% Foetal Bovine Serum (FBS) (GIBCO). FTC238 was grown in the same culture medium suplemented with 5% FBS. MOGGCCM and A549 were grown in 2:1 mixture of DMEM (D 6046, Sigma, Ca^2+-concentration 1.8 mM):Ham's F-12 supplemented with 10% FBS. Cultures were kept at 37° C. in a 95% air-5% CO2 atmosphere. As Ca^2+-free medium, minimum essential medium M8167 from Sigma was used.\nAssessment of tumoricidal effect. Quantitation of cell death was performed at 24, 48 or 72 hrs after exposure to the agents of interest following staining of the cells with trypan blue. This stain is taken up by necrotic cells. The numbers of necrotic cells/100 counted cells served as quantitative measure for tumoricidal effect (% of tumor cell death). For each agent or combination of agents and each time point 5 wells were analysed. Comparisons between groups was performed by means of Student's t-test.\n(§2) Exposure to agents. Tumor cells were exposed to the following agents and concentrations: MK 801 (10-500 μM), GYKI 52466 (10-500 μM), Cisplatin (10 μM), Vinblastin (1 μM), Thiotepa (10 μM) alone or in combination with MK 801 (10 μM), GYKI 52466 (10 μM) or NBQX (10 μM).\nData represent the mean±SEM of necrotic cells visualized by trypan blue staining (n=5/group). The potentiating effect of all three glutamate receptor antagonists was most prominent after an exposure time of 72 h. *P<0.05; **P<0.01; ***P<0.001, Student's t test.\nData represent the mean±SEM of necrotic cells visualized by trypan blue staining (n=5/group). The potentiating effect of the NMDA- and both AMPA antagonists is most prominent after an exposure time of 72 h. *P<0.05;**P<0.01;***P<0.001, Student's t test.\nData represent the mean±SEM of necrotic cells visualized by trypan blue staining (n=5/group). The potentiating effect of the NMDA- and both AMPA antagonists is most prominent after an exposure time of 48 hrs. *P<0.05;**P<0.01;***P<0.001, Student's t test."}, "[2]": {"tested_on": "human tumor cell lines (SKNAS, TE671, MOGGCCM, FTC238, A549, LS180, T47D)", "experiment": "MTT assay of cell viability (antiproliferative effect)", "type": "cell-based", "settings": "10-500 μM over 96 hrs, linear regression", "protocol": "as §1\nAssessment of cell viability. The yellow tetrazolium salt MTT (3-4,5-dimethylthiazol-2-2,5-diphenyltetrazolium bromid) is metabolized by viable, metabolically active cells to purple formazan crystals. Tumor cells grown in 96 well multiplates were incubated over 4 hrs with MTT solution (Cell proliferation kit I, Boehringer Mannheim, Germany). Formazan crystals were solubilized overnight, according to the manufacturer's instructions, and the product was quantified spectrophotometrically by measuring absorbance at 570 nm wave length using a VICTOR Multilabel Counter (Wallach).\nas §2\nCells were exposed to either culture medium alone (control) or dizocilpine (10-500 μM) over 96 hrs and viability was measured photometrically by means of the MTT assay. Data represent mean normalized optical densities±SEM of 6-8 measurements and were analyzed by means of linear regression. Abbreviations. SKNAS: human neuroblastoma; TE671: human rhabdomyosarcoma/medulloblastoma; MOGGCCM: human brain astrocytoma; FTC238: human thyroid carcinoma; A 549: human lung carcinoma; LS180: human colon adenocarcinoma; T47D: human breast carcinoma.\nCells were exposed to either culture medium alone (control) or GYKI52466 (10-500 μM) over 96 hrs and viability was measured photometrically by means of the MTT assay. Data represent mean normalized optical densities SEM of 68 measurements and were analyzed by means of linear regression. Abbreviations. […]"}},
  "note": "“Also recorded” adds a separate entry of the source.",
  "data": [
    {"smiles": "CC1=NN=C(c2ccc(N)cc2)c2cc3c(cc2C1)OCO3", "note": "[GYKI 52466]", "values": [
      {"measurement": "potentiation of tumoricidal effect (toxicity) of cisplatin", "setting": "[1]", "value": "significantly (P<0.05-0.001) potentiated; also recorded: significantly increase toxicity"},
      {"measurement": "potentiation of tumoricidal effect (toxicity) of thiotepa", "setting": "[1]", "value": "significantly (P<0.05-0.001) potentiated; also recorded: potentiate toxicity"},
      {"measurement": "potentiation of tumoricidal effect (toxicity) of vinblastin", "setting": "[1]", "value": "significantly (P<0.05-0.001) potentiated; also recorded: potentiate toxicity"},
      {"measurement": "antiproliferative effect in human tumor cell lines (viability, MTT assay)", "setting": "[2]", "value": "concentration dependent antiproliferative effect"},
      {"measurement": "antiproliferative effect in human tumor cell lines (viability, MTT assay)", "setting": "[2]; listed as GYK152466", "value": "significant concentration-dependent antiproliferative effect"}
    ]},
    {"smiles": "C[C@]12N[C@H](Cc3ccccc31)c1ccccc12", "note": "[MK 801]", "values": [
      {"measurement": "potentiation of tumoricidal effect (toxicity) of cisplatin", "setting": "[1]", "value": "significantly (P<0.05-0.001) potentiated"},
      {"measurement": "potentiation of tumoricidal effect (toxicity) of cisplatin", "setting": "[1]; listed as MK801", "value": "significantly increase toxicity"},
      {"measurement": "potentiation of tumoricidal effect (toxicity) of thiotepa", "setting": "[1]", "value": "significantly (P<0.05-0.001) potentiated"},
      {"measurement": "potentiation of tumoricidal effect (toxicity) of thiotepa", "setting": "[1]; listed as MK801", "value": "potentiate toxicity"},
      {"measurement": "potentiation of tumoricidal effect (toxicity) of vinblastin", "setting": "[1]", "value": "significantly (P<0.05-0.001) potentiated; also recorded: potentiate toxicity"},
      {"measurement": "antiproliferative effect in human tumor cell lines (viability, MTT assay)", "setting": "[2]", "value": "significant concentration-dependent antiproliferative effect"},
      {"measurement": "antiproliferative effect in human tumor cell lines (viability, MTT assay)", "setting": "[2]; listed as (+)dizocilpine", "value": "concentration dependent antiproliferative effect"}
    ]},
    {"smiles": "NS(=O)(=O)c1cccc2c1c([N+](=O)[O-])cc1nc(O)c(O)nc12", "note": "[NBQX, 2,3-dihydroxy-6-nitro-7-sulfaoylbenzo-(F)-quinoxaline]", "values": [
      {"measurement": "potentiation of tumoricidal effect (toxicity) of cisplatin", "setting": "[1]", "value": "significantly (P<0.05-0.001) potentiated; also recorded: significantly increase toxicity"},
      {"measurement": "potentiation of tumoricidal effect (toxicity) of thiotepa", "setting": "[1]", "value": "significantly (P<0.05-0.001) potentiated; also recorded: potentiate toxicity"},
      {"measurement": "potentiation of tumoricidal effect (toxicity) of vinblastin", "setting": "[1]", "value": "significantly (P<0.05-0.001) potentiated; also recorded: potentiate toxicity"}
    ]}
  ]
}
